Measurements: article PMC8371902, “Phase 1 study of M2698, a p70S6K/AKT dual inhibitor, in patients with advanced cancer” (Journal of Hematology & Oncology, 2021)

Key:
[1] = Food effect on M2698 pharmacokinetics (fed vs fasted, single 240 mg dose); assay type: in vivo, human
Experimental: Food effect was analyzed using an analysis of variance (performed on natural log-transformed values of area under the plasma concentration-time curve from time zero to infinity (AUC0-∞) and maximum plasma concentration (Cmax) including sequence, period, and fasting/fed condition as effect).
Two single doses of 240 mg M2698 were administered 7 days apart (fed then fasted states or vice versa) to assess any effect of food on pharmacokinetics; these patients then continued treatment with either 240 mg/day or 320 mg/day M2698 as part of the dose expansion cohort. (240 mg, n=7; 320 mg, n=5)
^*Fed vs fasting following single dose of 240 mg M2698. Main analysis performed on natural log-transformed values of AUC0-∞ and Cmax including sequence, period and fasting/fed condition as effect. For one of the eight evaluable patients, no AUC under fed conditions was determined.

[2] = Monotherapy population PK model (two-compartment); conditions: in vivo
Source text: A monotherapy population PK model was developed, consisting of a two-compartment model with four absorption transit compartments and first-order elimination (Additional file 1: Table S5).

[3] = Fasted, single dose of 240 mg, n=8

Structure (SMILES): NC(=O)c1cccc2c(N[C@H](CN3CCC3)c3ccc(Cl)c(C(F)(F)F)c3)ncnc12 [M2698]
- AUC0-∞ (90% CI) [1, 3]: 40016.18 (22818.47–70175.36) ng.h/mL
- Cmax (90% CI) [1, 3]: 769.04 (410.14–1441.99) ng/mL
- AUC0-∞ (90% CI) ([1]; Fed, single dose of 240 mg, n=7): 38626.33 (21989.80–67849.37) ng.h/mL
- Cmax (90% CI) ([1]; Fed, single dose of 240 mg, n=8): 934.92 (498.61–1753.02) ng/mL
- Food effect on the exposure of M2698 ([1]; in vivo): no apparent food effect
- Cmax Fed/fasted ratio (90% CI) ([1]; single dose of 240 mg, p=0.3917): 1.2157 (0.8058–1.8341) p=0.3917
- AUC0-∞ Fed/fasted ratio (90% CI) ([1]; single dose of 240 mg, p=0.6504): 0.9653 (0.8326–1.1191) p=0.6504
- ALB on Vc, population PK estimate [2]: 0.0247
- BSA on Vc, population PK estimate [2]: 1.17
- CL (clearance), population PK estimate [2]: 7.06 L/h
- KA (absorption rate constant), population PK estimate [2]: 2.02 h⁻¹
- Q (flow rate), population PK estimate [2]: 18.0 L/h
- Vc (volume of distribution of the central compartment), population PK estimate [2]: 292 L
- Vp (volume of distribution of the peripheral compartment), population PK estimate [2]: 53.0 L
